US12396461B2, “Functional peptides having antimicrobial activity against phytopathogenic microorganisms” (TOYOTA JIDOSHA KABUSHIKI KAISHA, priority 2019, dated 2025)
Like-named read-outs stand apart in the source and are kept apart here.

Tests used:
Format in all cases: cell-based
Botrytis cinerea = tested on: Botrytis cinerea; design: key to Plate antimicrobial activity test Botrytis cinerea, level: a case where hyphae extended to the entire well and no antimicrobial activity was found is defined as “level 0,”; a case where hyphae extended to less than a half of the well and thus the peptide inhibited the growth of the hyphae is defined as “level 1,”; a case where ungerminated spores were present and the peptide partially inhibited the germination is defined as “level 2,”; a case where all spores were ungerminated and the peptide completely inhibited the germination is defined as “level 3.”; settings: 25° C. for 1 day or 2 days, microscopic observation
[1] = tested on: Colletotrichum destructivum; design: key to Plate antimicrobial activity test Colletotrichum destructivum, level: a case where hyphae extended to the entire well and no antimicrobial activity was found is defined as “level 0,”; a case where hyphae extended to less than a half of the well and thus the peptide inhibited the growth of the hyphae is defined as “level 1,”; a case where ungerminated spores were present and the peptide partially inhibited the germination is defined as “level 2,”; a case where all spores were ungerminated and the peptide completely inhibited the germination is defined as “level 3.”; settings: 25° C. for 1 day or 2 days, microscopic observation
[2] = tested on: Colletotrichum orbiculare; design: key to Plate antimicrobial activity test Colletotrichum orbiculare, level: a case where hyphae extended to the entire well and no antimicrobial activity was found is defined as “level 0,”; a case where hyphae extended to less than a half of the well and thus the peptide inhibited the growth of the hyphae is defined as “level 1,”; a case where ungerminated spores were present and the peptide partially inhibited the germination is defined as “level 2,”; a case where all spores were ungerminated and the peptide completely inhibited the germination is defined as “level 3.”; settings: 25° C. for 1 day or 2 days, microscopic observation
Fusarium oxysporum = tested on: Fusarium oxysporum; design: key to Plate antimicrobial activity test Fusarium oxysporum, level: a case where hyphae extended to the entire well and no antimicrobial activity was found is defined as “level 0,”; a case where hyphae extended to less than a half of the well and thus the peptide inhibited the growth of the hyphae is defined as “level 1,”; a case where ungerminated spores were present and the peptide partially inhibited the germination is defined as “level 2,”; a case where all spores were ungerminated and the peptide completely inhibited the germination is defined as “level 3.”
Pyricularia oryzae = tested on: Pyricularia oryzae; design: key to Plate antimicrobial activity test Pyricularia oryzae, level: a case where hyphae extended to the entire well and no antimicrobial activity was found is defined as “level 0,”; a case where hyphae extended to less than a half of the well and thus the peptide inhibited the growth of the hyphae is defined as “level 1,”; a case where ungerminated spores were present and the peptide partially inhibited the germination is defined as “level 2,”; a case where all spores were ungerminated and the peptide completely inhibited the germination is defined as “level 3.”; settings: 25° C. for 1 day or 2 days, microscopic observation

TKVKN (listed as Solanum lycopersicum) [TsORF6-1-5aa-9, partial peptide of TsORF6-1, 5 amino acid residues]
0: Plate antimicrobial activity test Botrytis cinerea, level (Botrytis cinerea; peptide 1 μM) | Plate antimicrobial activity test Botrytis cinerea, level (Botrytis cinerea; peptide 10 μM) | Plate antimicrobial activity test Botrytis cinerea, level (Botrytis cinerea; peptide 100 μM) | Plate antimicrobial activity test Colletotrichum destructivum, level ([1]; peptide 1 μM) | Plate antimicrobial activity test Colletotrichum destructivum, level ([1]; peptide 10 μM) | Plate antimicrobial activity test Colletotrichum destructivum, level ([1]; peptide 100 μM) | Plate antimicrobial activity test Colletotrichum orbiculare, level ([2]; peptide 1 μM) | Plate antimicrobial activity test Colletotrichum orbiculare, level ([2]; peptide 10 μM) | Plate antimicrobial activity test Colletotrichum orbiculare, level ([2]; peptide 100 μM) | Plate antimicrobial activity test Fusarium oxysporum, level (Fusarium oxysporum) | Plate antimicrobial activity test Pyricularia oryzae, level (Pyricularia oryzae; peptide 1 μM) | Plate antimicrobial activity test Pyricularia oryzae, level (Pyricularia oryzae; peptide 10 μM) | Plate antimicrobial activity test Pyricularia oryzae, level (Pyricularia oryzae; peptide 100 μM)

TKVKNKKV (listed as Solanum lycopersicum) [TsORF6-1-8aa-9, partial peptide of TsORF6-1, 8 amino acid residues]
0: Plate antimicrobial activity test Botrytis cinerea, level (Botrytis cinerea; peptide 1 μM) | Plate antimicrobial activity test Botrytis cinerea, level (Botrytis cinerea; peptide 10 μM) | Plate antimicrobial activity test Botrytis cinerea, level (Botrytis cinerea; peptide 100 μM) | Plate antimicrobial activity test Colletotrichum destructivum, level ([1]; peptide 1 μM) | Plate antimicrobial activity test Colletotrichum destructivum, level ([1]; peptide 10 μM) | Plate antimicrobial activity test Colletotrichum destructivum, level ([1]; peptide 100 μM) | Plate antimicrobial activity test Colletotrichum orbiculare, level ([2]; peptide 1 μM) | Plate antimicrobial activity test Colletotrichum orbiculare, level ([2]; peptide 10 μM) | Plate antimicrobial activity test Colletotrichum orbiculare, level ([2]; peptide 100 μM) | Plate antimicrobial activity test Fusarium oxysporum, level (Fusarium oxysporum) | Plate antimicrobial activity test Pyricularia oryzae, level (Pyricularia oryzae; peptide 1 μM) | Plate antimicrobial activity test Pyricularia oryzae, level (Pyricularia oryzae; peptide 10 μM) | Plate antimicrobial activity test Pyricularia oryzae, level (Pyricularia oryzae; peptide 100 μM)

VKNKK (listed as Solanum lycopersicum) [TsORF6-1-5aa-11, partial peptide of TsORF6-1, 5 amino acid residues]
0: Plate antimicrobial activity test Botrytis cinerea, level (Botrytis cinerea; peptide 1 μM) | Plate antimicrobial activity test Botrytis cinerea, level (Botrytis cinerea; peptide 10 μM) | Plate antimicrobial activity test Botrytis cinerea, level (Botrytis cinerea; peptide 100 μM) | Plate antimicrobial activity test Colletotrichum destructivum, level ([1]; peptide 1 μM) | Plate antimicrobial activity test Colletotrichum destructivum, level ([1]; peptide 10 μM) | Plate antimicrobial activity test Colletotrichum destructivum, level ([1]; peptide 100 μM) | Plate antimicrobial activity test Colletotrichum orbiculare, level ([2]; peptide 1 μM) | Plate antimicrobial activity test Colletotrichum orbiculare, level ([2]; peptide 10 μM) | Plate antimicrobial activity test Colletotrichum orbiculare, level ([2]; peptide 100 μM) | Plate antimicrobial activity test Fusarium oxysporum, level (Fusarium oxysporum) | Plate antimicrobial activity test Pyricularia oryzae, level (Pyricularia oryzae; peptide 1 μM) | Plate antimicrobial activity test Pyricularia oryzae, level (Pyricularia oryzae; peptide 10 μM) | Plate antimicrobial activity test Pyricularia oryzae, level (Pyricularia oryzae; peptide 100 μM)

VKNKKVAK (listed as Solanum lycopersicum) [TsORF6-1-8aa-11, partial peptide of TsORF6-1, 8 amino acid residues]
0: Plate antimicrobial activity test Botrytis cinerea, level (Botrytis cinerea; peptide 1 μM) | Plate antimicrobial activity test Botrytis cinerea, level (Botrytis cinerea; peptide 10 μM) | Plate antimicrobial activity test Botrytis cinerea, level (Botrytis cinerea; peptide 100 μM) | Plate antimicrobial activity test Colletotrichum destructivum, level ([1]; peptide 1 μM) | Plate antimicrobial activity test Colletotrichum destructivum, level ([1]; peptide 10 μM) | Plate antimicrobial activity test Colletotrichum destructivum, level ([1]; peptide 100 μM) | Plate antimicrobial activity test Colletotrichum orbiculare, level ([2]; peptide 1 μM) | Plate antimicrobial activity test Colletotrichum orbiculare, level ([2]; peptide 10 μM) | Plate antimicrobial activity test Colletotrichum orbiculare, level ([2]; peptide 100 μM) | Plate antimicrobial activity test Fusarium oxysporum, level (Fusarium oxysporum) | Plate antimicrobial activity test Pyricularia oryzae, level (Pyricularia oryzae; peptide 1 μM) | Plate antimicrobial activity test Pyricularia oryzae, level (Pyricularia oryzae; peptide 10 μM) | Plate antimicrobial activity test Pyricularia oryzae, level (Pyricularia oryzae; peptide 100 μM)

VKTKV (listed as Solanum lycopersicum) [TsORF6-1-5aa-7, partial peptide of TsORF6-1, 5 amino acid residues]
0: Plate antimicrobial activity test Botrytis cinerea, level (Botrytis cinerea; peptide 1 μM) | Plate antimicrobial activity test Botrytis cinerea, level (Botrytis cinerea; peptide 10 μM) | Plate antimicrobial activity test Botrytis cinerea, level (Botrytis cinerea; peptide 100 μM) | Plate antimicrobial activity test Colletotrichum destructivum, level ([1]; peptide 1 μM) | Plate antimicrobial activity test Colletotrichum destructivum, level ([1]; peptide 10 μM) | Plate antimicrobial activity test Colletotrichum destructivum, level ([1]; peptide 100 μM) | Plate antimicrobial activity test Colletotrichum orbiculare, level ([2]; peptide 1 μM) | Plate antimicrobial activity test Colletotrichum orbiculare, level ([2]; peptide 10 μM) | Plate antimicrobial activity test Colletotrichum orbiculare, level ([2]; peptide 100 μM) | Plate antimicrobial activity test Fusarium oxysporum, level (Fusarium oxysporum) | Plate antimicrobial activity test Pyricularia oryzae, level (Pyricularia oryzae; peptide 1 μM) | Plate antimicrobial activity test Pyricularia oryzae, level (Pyricularia oryzae; peptide 10 μM) | Plate antimicrobial activity test Pyricularia oryzae, level (Pyricularia oryzae; peptide 100 μM)

VKTKVKNK (listed as Solanum lycopersicum) [TsORF6-1-8aa-7, partial peptide of TsORF6-1, 8 amino acid residues]
0: Plate antimicrobial activity test Botrytis cinerea, level (Botrytis cinerea; peptide 1 μM) | Plate antimicrobial activity test Botrytis cinerea, level (Botrytis cinerea; peptide 10 μM) | Plate antimicrobial activity test Botrytis cinerea, level (Botrytis cinerea; peptide 100 μM) | Plate antimicrobial activity test Colletotrichum destructivum, level ([1]; peptide 1 μM) | Plate antimicrobial activity test Colletotrichum destructivum, level ([1]; peptide 10 μM) | Plate antimicrobial activity test Colletotrichum destructivum, level ([1]; peptide 100 μM) | Plate antimicrobial activity test Colletotrichum orbiculare, level ([2]; peptide 1 μM) | Plate antimicrobial activity test Colletotrichum orbiculare, level ([2]; peptide 10 μM) | Plate antimicrobial activity test Colletotrichum orbiculare, level ([2]; peptide 100 μM) | Plate antimicrobial activity test Fusarium oxysporum, level (Fusarium oxysporum) | Plate antimicrobial activity test Pyricularia oryzae, level (Pyricularia oryzae; peptide 1 μM) | Plate antimicrobial activity test Pyricularia oryzae, level (Pyricularia oryzae; peptide 10 μM) | Plate antimicrobial activity test Pyricularia oryzae, level (Pyricularia oryzae; peptide 100 μM)

VVKTK (listed as Solanum lycopersicum) [TsORF6-1-5aa-6, partial peptide of TsORF6-1, 5 amino acid residues]
0: Plate antimicrobial activity test Botrytis cinerea, level (Botrytis cinerea; peptide 1 μM) | Plate antimicrobial activity test Botrytis cinerea, level (Botrytis cinerea; peptide 10 μM) | Plate antimicrobial activity test Botrytis cinerea, level (Botrytis cinerea; peptide 100 μM) | Plate antimicrobial activity test Colletotrichum destructivum, level ([1]; peptide 1 μM) | Plate antimicrobial activity test Colletotrichum destructivum, level ([1]; peptide 10 μM) | Plate antimicrobial activity test Colletotrichum destructivum, level ([1]; peptide 100 μM) | Plate antimicrobial activity test Colletotrichum orbiculare, level ([2]; peptide 1 μM) | Plate antimicrobial activity test Colletotrichum orbiculare, level ([2]; peptide 10 μM) | Plate antimicrobial activity test Colletotrichum orbiculare, level ([2]; peptide 100 μM) | Plate antimicrobial activity test Fusarium oxysporum, level (Fusarium oxysporum) | Plate antimicrobial activity test Pyricularia oryzae, level (Pyricularia oryzae; peptide 1 μM) | Plate antimicrobial activity test Pyricularia oryzae, level (Pyricularia oryzae; peptide 10 μM) | Plate antimicrobial activity test Pyricularia oryzae, level (Pyricularia oryzae; peptide 100 μM)
